{"source": "patent US4943636A", "about": "“Certain pyridyl-di-sulfide-alkylenecarbonxylate-ortho-nitro-phenylsulfonic acid esters useful for coupling biological materials” (Cetus Corporation, priority 1987, dated 1990)", "key": {"[1]": {"assay": "Solubility in water / physical properties", "assay_type": "physicochemical"}, "bovine serum albumin": {"test_system": "bovine serum albumin", "settings": "pH 8.5; compared with same ester of N-hydroxysuccinimide; cited from earlier work"}, "[2]": {"settings": "prior-art agents; cited from earlier work"}, "[3]": {"settings": "pH 7.4; cited from earlier work"}, "cells": {"test_system": "cells", "settings": "reacted with fluoresceinated avidin; compared with biotin-p-nitrophenyl ester; cited from earlier work"}, "[4]": {"test_system": "sheep red blood cells (SRBC)", "assay": "Labelling of sheep red blood cells, cytofluorometry", "assay_type": "cell-based", "settings": "excitation at 360 nm", "procedure": "Dansyl-sac-HNSA ester was prepared as described in Example 1A using molar equivalents of HNSA, dicyclohexylcarbodiimide and dansyl-ε-aminocaproic acid (from Sigma Chemicals). For use in coupling to sheep red blood cells (SRBC) the dansyl-sac-HNSA ester (50 mg) was prepared in 7 ml of 0.28 M cacodylate buffer, pH 6.9.\nSheep red blood cells were washed 4 times (400×g, 8 minutes) in G-PBS buffer (5% α-D-glucose w/v in PBSCa-Mg). To 1 ml of packed red blood cells was added the 7 ml of dansyl-sac-HNSA ester dropwise with gentle mixing for 10 minutes at room temperature. The reaction was done in foil-wrapped glassware to protect against photodecomposition. Following the reaction the cells were washed in cold G-PBS buffer containing 1% heat inactivated (56° C., 30 minutes) FCS (fetal calf serum) until the supernatants were colorless (a minimum of 4 washes).\nThe dansyl-sac-HNSA labelled SRBC were monitored using a Coulter EPICS V Cytofluorometer immediately after labeling and at 24 hours. […] This translates to an increase in intensity 720 times over unlabeled cells."}, "biotinylated polylysine": {"test_system": "biotinylated polylysine", "settings": "over a 30 minute period; pH 7.4", "protocol": "Biotinylated polylysine (0.6 ml; 73,000 D average mol. wt.) was adjusted to pH 7.4 with 0.015 ml of 2.5 N NaOH. Approximately 5 mg of mal-sac-HNSA was added to the biotinylated polylysine and stirred at room temperature. Ten μl aliquots were removed from the mixture at timed intervals and diluted into 1.0 ml of 0.01 M phosphate buffer at pH 7.0. The spectrum of each diluted aliquot was measured and the absorbance at 406 nm recorded. A total of 50 μl of 4.8 N NaOH solution was then added to each aliquot, mixed, and the spectrum retaken.\nAfter 30 minutes of incubation time, the reaction was stopped using a Sephadex G-25 column, and the high molecular weight (biotin)4 -polylysine-(sac-mal)18 was well separated from excess HNSA and unreacted mal-sac-HNSA."}, "streptavidin": {"test_system": "streptavidin", "set-up": "species or system Streptomyces avidinii", "procedure": "A total of 0.26 mg (4.3×10^-3 μmoles) of streptavidin purified from Streptomyces avidinii by the method of Hoffman et al., PNAS, 77, 4666-4668 (1980) was dissolved in 1.0 ml of phosphate buffered saline at pH 7.4 to yield a total amine concentration of 6.93×10^-5 M (16 NH2 /streptavidin). […] Good separation was achieved between the protein and the excess HNSA and unreacted HNSA ester. […] In this case […] of the amino groups on streptavidin (12.9 out of 16.0) reacted."}, "[5]": {"test_system": "Horseradish Peroxidase (HRP)", "settings": "over a 30 minute period; pH 7.0", "protocol": "A total of 40 mg (1.0 μmoles) of HRP (Sigma Chemical Co.) was dissolved in 0.5 ml of 0.1 M phosphate buffer at pH 7.0 to yield an amine concentration of 3.7×10^-3 M. Then, 5 mg (1.1×10^-5 moles) of the mal-sac HNSA ester of Example 1A, calculated from the data in Example 2A, was dissolved in 0.5 ml of the HRP solution. The mixture was stirred at room temperature. Five μl aliquots were removed from the incubating solution at timed intervals and were each diluted into 1.0 ml of 0.01 M sodium phosphate buffer at pH 7.0. The spectrum of each diluted aliguot was recorded and the absorbance at 406 nm measured. A total of 50 μl of 4.8 N NaOH was then added to each aliquot, each aliquot was mixed and its spectrum retaken and the absorbance at 406 nm measured. Because HRP has an absorbance at 406 nm due to its heme group and this absorbance changes after addition of sodium hydroxide, corrections for the absorbances due to the HRP were made on every dilution.\nAfter 30 minutes the reaction was stopped using a Sephadex G-25 column as described in Example 2A. Fractions were collected and measured for absorbance at 406 nm and 280 nm."}, "[6]": {"assay": "Hydrolysis of ester by sodium hydroxide", "assay_type": "physicochemical", "settings": "4.8 N sodium hydroxide added, pH 7.0 phosphate buffer aliquot", "procedure": "(§1) About 0.5 mg of the purified mal-sac HNSA ester from Example 1A was dissolved in 1 ml of distilled water."}, "avidin": {"test_system": "avidin", "settings": "for Percent Ester Remaining: room temperature", "protocol": "A total of 220 μl of an aqueous solution of 4.65 mg of avidin per ml of solution (27 amino groups per avidin molecule) was charged to a siliconized glass tube with a stir bar. Approximately 1.5 mg of the mal-sac HNSA ester of Example 1A (of 88.5% purity), calculated from the data of Example 2A, was added and the mixture stirred at room temperature. Ten μl aliquots of the mixture were removed and added to 1.0 ml of 10 mM phosphate buffer at pH 7.0 at timed intervals. The spectrum of each aliquot was taken and then 50 μl of 4.8 N NaOH solution was added to each aliquot and the spectrum was retaken."}, "Stability in water": {"assay": "Stability in water", "assay_type": "physicochemical", "settings": "no nucleophiles added"}, "[7]": {"test_system": "bovine serum albumin (BSA)", "settings": "for Percent Ester Remaining in Solution: pH 7.5, room temperature", "procedure": "as §1\nThe difference between the post-base and initial free HNSA concentration represents the concentration of ester. From the actual concentration of ester the amount of ester to be added to the protein solution to achieve the desired degree of substitution can be calculated.\nA total of 22 mg ([…]) of BSA (of molecular weight 66,296) was dissolved in 2.0 ml of 0.01 M phosphate buffer at pH 7.5 to yield a total amino concentration of 1.0×10^-2 moles per liter (assuming 59 lysines/BSA molecule). […] The reaction was carried out at room temperature. […]"}, "Storage stability": {"assay": "Storage stability", "assay_type": "physicochemical", "settings": "purified ester, stored desiccated"}}, "note": "Where two headings read alike, the source gives them in different places.", "data": [{"compound": "O=C(CCSSc1ccccn1)Oc1ccc(S(=O)(=O)O)cc1[N+](=O)[O-]", "note": "[3-(2-pyridyldithio)propionyl-HNSA, 3-(2-pyridyldithio)propionyl-HNSA ester]", "values": [{"measurement": "physical properties relative to mal-sac HNSA ester", "setting": "[1]", "result": "essentially the same properties"}]}, {"compound": "O=C(CCCCCNc1ccc([N+](=O)[O-])cc1[N+](=O)[O-])Oc1ccc(S(=O)(=O)O)cc1[N+](=O)[O-]", "note": "[N-2,4-dinitrophenyl-6-aminocaproic acid ester of HNSA]", "values": [{"measurement": "efficiency in conjugating to bovine serum albumin", "setting": "bovine serum albumin", "result": "more efficient"}]}, {"compound": "O=C(CCSSc1ccccn1)ON1C(=O)CCC1=O", "note": "[SPDP, N-succinimidyl-3-(2-pyridyldithio)propionate]", "values": [{"measurement": "water solubility", "setting": "[2]", "result": "lack of water solubility"}]}, {"compound": "O=C(CNC(=O)OCc1ccccc1)Oc1ccc(S(=O)(=O)O)cc1[N+](=O)[O-]", "note": "[Z-gly-HNSA, N-benzyloxycarbonyl-gly-HNSA]", "values": [{"measurement": "rate of aminolysis by glycine relative to hydrolysis rate", "setting": "[3]", "result": "considerably higher than its hydrolysis rate"}]}, {"compound": "O=C1N[C@H]2[C@H](CS[C@H]2CCCCC(=O)Oc2ccc(S(=O)(=O)O)cc2[N+](=O)[O-])N1", "note": "[biotin-HNSA]", "values": [{"measurement": "increase in fluorescence of treated cells", "setting": "cells", "result": "much larger increase in fluorescence"}, {"measurement": "amino groups of the polylysine polypeptide reacted", "setting": "polylysine; 7 minutes", "result": 28, "unit": "%"}, {"measurement": "reaction rate", "setting": "polylysine; over a 5 minute period, pH 7.4", "result": "essentially linear"}, {"measurement": "physical properties relative to mal-sac HNSA ester", "setting": "[1]", "result": "essentially the same physical properties"}]}, {"compound": "CN(C)c1cccc2c(S(=O)(=O)NCCCCCC(=O)Oc3ccc(S(=O)(=O)O)cc3[N+](=O)[O-])cccc12", "note": "[dansyl-sac-HNSA]", "values": [{"measurement": "increase in intensity over unlabeled cells", "setting": "[4]", "result": 720, "unit": "times"}]}, {"compound": "O=C(CCCCCN1C(=O)C=CC1=O)Oc1ccc(S(=O)(=O)O)cc1[N+](=O)[O-]", "note": "[mal-sac-HNSA, N-maleimido-6-aminocaproyl-HNSA]", "values": [{"measurement": "reaction rate", "setting": "biotinylated polylysine", "result": "essentially linear"}, {"measurement": "amino groups on streptavidin reacted", "setting": "streptavidin; 20 minutes", "result": 79, "unit": "%"}, {"measurement": "number of amino groups on streptavidin reacted", "setting": "streptavidin; 20 minutes, out of 16.0", "result": 12.9}, {"measurement": "reaction rate", "setting": "streptavidin; over the period measured, pH 7.4", "result": "essentially linear"}, {"measurement": "reaction rate", "setting": "[5]", "result": "essentially linear"}, {"measurement": "hydrolysis by hydroxide", "setting": "[6]", "result": "rapidly hydrolyzed"}, {"measurement": "Percent Ester Remaining", "setting": "avidin; 0 minutes", "result": 89, "unit": "%"}, {"measurement": "Percent Ester Remaining", "setting": "avidin; 5 minutes", "result": 86, "unit": "%"}, {"measurement": "Percent Ester Remaining", "setting": "avidin; 20 minutes", "result": 78, "unit": "%"}, {"measurement": "amino groups of avidin reacted", "setting": "avidin; 30 minutes, 27 amino groups per avidin molecule", "result": 13.5, "unit": "amino groups"}, {"measurement": "Percent Ester Remaining", "setting": "avidin; 30 minutes", "result": 73, "unit": "%"}, {"measurement": "reaction rate", "setting": "avidin; FIG. 3", "result": "linear"}, {"measurement": "stability in water", "setting": "Stability in water", "result": "stable in water for several hours"}, {"measurement": "solubility in water", "setting": "[1]", "result": "dissolve fully in water"}, {"measurement": "Concentration of Ester", "setting": "[7]; 0 minutes", "result": 0.000156, "unit": "mol/L"}, {"measurement": "Percent Ester Remaining in Solution", "setting": "[7]; 0 minutes", "result": 94.0, "unit": "%"}, {"measurement": "Concentration of Ester", "setting": "[7]; 5 minutes", "result": 0.000116, "unit": "mol/L"}, {"measurement": "Percent Ester Remaining in Solution", "setting": "[7]; 5 minutes", "result": 82.9, "unit": "%"}, {"measurement": "Concentration of Ester", "setting": "[7]; 9 minutes", "result": 0.000103, "unit": "mol/L"}, {"measurement": "Percent Ester Remaining in Solution", "setting": "[7]; 9 minutes", "result": 78.3, "unit": "%"}, {"measurement": "Concentration of Ester", "setting": "[7]; 14 minutes", "result": 0.000111, "unit": "mol/L"}, {"measurement": "Percent Ester Remaining in Solution", "setting": "[7]; 14 minutes", "result": 74.5, "unit": "%"}, {"measurement": "ester reacted", "setting": "[7]; 15 minutes", "result": 0.0026, "unit": "mol/L"}, {"measurement": "ε-amino groups of BSA substituted", "setting": "[7]; 15 minutes, of 59 ε-amino groups", "result": 25.9, "unit": "%"}, {"measurement": "Concentration of HNSA", "setting": "[7]; With NaOH, 0 minutes", "result": 0.000166, "unit": "mol/L"}, {"measurement": "Concentration of HNSA", "setting": "[7]; With NaOH, 5 minutes", "result": 0.00014, "unit": "mol/L"}, {"measurement": "Concentration of HNSA", "setting": "[7]; With NaOH, 9 minutes", "result": 0.000132, "unit": "mol/L"}, {"measurement": "Concentration of HNSA", "setting": "[7]; With NaOH, 14 minutes", "result": 0.000149, "unit": "mol/L"}, {"measurement": "Concentration of HNSA", "setting": "[7]; Without NaOH, 0 minutes", "result": "1.03e-05", "unit": "mol/L"}, {"measurement": "Concentration of HNSA", "setting": "[7]; Without NaOH, 5 minutes", "result": "2.44e-05", "unit": "mol/L"}, {"measurement": "Concentration of HNSA", "setting": "[7]; Without NaOH, 9 minutes", "result": "2.87e-05", "unit": "mol/L"}, {"measurement": "Concentration of HNSA", "setting": "[7]; Without NaOH, 14 minutes", "result": "3.77e-05", "unit": "mol/L"}, {"measurement": "reaction rate", "setting": "[7]; over a 15 minute period", "result": "essentially linear"}, {"measurement": "storage stability", "setting": "Storage stability", "result": "stable for extended periods"}]}, {"compound": "mal-sac-BSA: product of the first reaction of mal-sac-HNSA ester with bovine serum albumin", "values": [{"measurement": "mal-sac groups per molecule", "setting": "[7]; 15 minutes", "result": "16 mal-sac groups per molecule"}]}]}
